# Measurements taken from ChEMBL document CHEMBL1141744, “Antibacterial steroidal alkaloids from Sarcococca saligna” (1998).
# Tests used:
# [1] = tested on: Pseudomonas aeruginosa; assay: Antibacterial activity against Pseudomonas aeruginosa at 200 ug/100uL after 24 hrs by agar well diffusion method; format: functional
# [2] = tested on: Klebsiella pneumoniae; assay: Antibacterial activity against Klebsiella pneumoniae at 200 ug/100uL after 24 hrs by agar well diffusion method; format: functional
# [3] = tested on: Staphylococcus aureus; assay: Antibacterial activity against Staphylococcus aureus at 200 ug/100uL after 24 hrs by agar well diffusion method; format: functional
# [4] = tested on: Streptococcus pyogenes; assay: Antibacterial activity against Streptococcus pyogenes at 200 ug/100uL after 24 hrs by agar well diffusion method; format: functional
# [5] = tested on: Shigella boydii; assay: Antibacterial activity against Shigella boydii at 200 ug/100uL after 24 hrs by agar well diffusion method; format: functional
# [6] = tested on: Salmonella typhi; assay: Antibacterial activity against Salmonella typhi at 200 ug/100uL after 24 hrs by agar well diffusion method; format: functional, Salmonella enterica subsp. enterica serovar Typhi
# [7] = tested on: Proteus mirabilis; assay: Antibacterial activity against Proteus mirabilis after at 200 ug/100uL 24 hrs by agar well diffusion method; format: functional
Structure (SMILES),inhibition zone (IZ) [1] [mm],inhibition zone (IZ) [2] [mm],inhibition zone (IZ) [3] [mm],inhibition zone (IZ) [4] [mm],inhibition zone (IZ) [5] [mm],inhibition zone (IZ) [6] [mm],inhibition zone (IZ) [7] [mm]
C[C@@H]([C@H]1CC[C@H]2[C@@H]3CC[C@H]4C[C@@H](N(C)C(=O)CCc5ccccc5)CC[C@]4(C)[C@H]3CC[C@]12C)N(C)C,7.5,10.5,11,,,,
C[C@@H]([C@H]1CC[C@H]2[C@@H]3CC[C@H]4C[C@@H](N(C)CCCc5ccccc5)CC[C@]4(C)[C@H]3CC[C@]12C)N(C)C,5.5,,,,,,
C[C@@H]([C@H]1CC[C@H]2[C@@H]3CC[C@H]4C[C@@H](N(C)C(=O)c5ccccc5)CC[C@]4(C)[C@H]3CC[C@]12C)N(C)C,6,8,12,6,6,6,8
C[C@@H]([C@H]1CC[C@H]2[C@@H]3CC[C@H]4C[C@@H](N(C)Cc5ccccc5)CC[C@]4(C)[C@H]3CC[C@]12C)N(C)C,5.5,6,9,,,,
CC1(C)S[C@@H]2[C@H](NC(=O)[C@H](N)c3ccc(O)cc3)C(=O)N2[C@H]1C(=O)O [AMOXICILLIN],15,17,16,16,17,12,16
CC1(C)S[C@@H]2[C@H](NC(=O)[C@H](N)c3ccccc3)C(=O)N2[C@H]1C(=O)O [AMPICILLIN],15,17,18,17,17,12,17
C[C@@H]([C@H]1CC[C@H]2[C@@H]3CC[C@H]4C[C@@H](NC(=O)c5ccccc5)CC[C@]4(C)[C@H]3CC[C@]12C)N(C)C [EPIPACHYSAMINE D],,,7,,,,
C[C@@H]([C@H]1CC[C@H]2[C@@H]3CC[C@H]4C[C@@H](N(C)C(=O)/C=C/c5ccccc5)CC[C@]4(C)[C@H]3CC[C@]12C)N(C)C [SALIGCINNAMIDE],6,9,12,8,6,6,7
